Data taken from patent US20030235877A1, “Conjugates of haptens to beta-lactam derivatives and their use for detecting and/or quantifying haptens in solution and device for implementation thereof” (priority 1996, published 2003).

Key:
[1] = molecular target: T1, penicillin detector of the Beta-Star® Test (Bacillus licheniformis, UniProt P12287); experiment: Ka (apparent second-order rate constant for acyl enzyme formation), calculated using the penicillin detector of the Beta-Star Test; type: binding; conditions: Ka=k2/K
T1 construct: purchased UCB, Belgium (BetaSTAR kit)
T1 sequence (P12287 346-601): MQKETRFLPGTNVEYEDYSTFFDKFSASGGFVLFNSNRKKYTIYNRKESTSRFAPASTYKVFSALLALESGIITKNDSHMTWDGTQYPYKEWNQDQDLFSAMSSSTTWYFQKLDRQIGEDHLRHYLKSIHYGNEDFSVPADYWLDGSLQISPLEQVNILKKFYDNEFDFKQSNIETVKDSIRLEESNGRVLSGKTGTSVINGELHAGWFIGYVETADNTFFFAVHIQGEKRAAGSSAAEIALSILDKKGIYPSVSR
Text: (§1) The particular mode of conjugation claimed in the present invention guarantees to maintain kinetic parameters (Km, Ki, kcat and Ka=k2/K, where Km is the enzyme Michaelis-Menten constant, Ki is the inhibitor-enzyme complex dissociation constant, kcat the catalytic constant and Ka the apparent second-order rate constant for acyl enzyme formation respectively) toward β-lactamases and penicillin detectors, which are essentially the same as those of common penicillins.
^□(Column 10): calculated using the penicillin detector of the Beta-Star® Test
The detector showing the best affinity for the progesterone benzylpenicillinate conjugate is the polypeptide included in the Beta-star® kit. This genetic engineering peptide has kept a very high affinity for benzylpenicillin but has no enzymatic activity. It is thus coupled to colored particles for allowing sensitive detection.

[2] = molecular target: T2, β-lactamase of Enterobacter cloacae P99 (Enterobacter cloacae, UniProt P05364); experiment: Ki of conjugates, calculated using the β-lactamase of Enterobacter cloacae P99; type: biochemical
T2 construct: Class C β-lactamase as that extracted from Enterobacter cloacae P99; host or cells: Enterobacter cloacae P99 (enzyme described as extracted from this strain)
T2 sequence (P05364 21-381): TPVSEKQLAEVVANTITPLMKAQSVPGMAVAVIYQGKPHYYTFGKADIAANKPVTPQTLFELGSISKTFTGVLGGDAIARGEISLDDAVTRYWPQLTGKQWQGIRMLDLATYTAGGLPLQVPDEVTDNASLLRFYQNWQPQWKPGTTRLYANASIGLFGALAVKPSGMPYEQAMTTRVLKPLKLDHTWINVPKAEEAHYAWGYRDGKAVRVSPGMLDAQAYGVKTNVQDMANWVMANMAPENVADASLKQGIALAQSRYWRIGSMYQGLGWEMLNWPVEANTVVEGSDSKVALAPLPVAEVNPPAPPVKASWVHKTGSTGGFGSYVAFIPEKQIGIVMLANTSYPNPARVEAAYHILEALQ
Text: as §1
^x(Column 9): calculated using the β-lactamase of Enterobacter cloacae P99

[3] = system: CC(=O)C1CCC2C3CCC4=CC(=O)CCC4(C)C3C(OC(=O)c3ccc(-c4noc(C)c4C(=O)NC4C(=O)N5C4SC(C)(C)C5C(=O)O)cc3)CC12C; experiment: purified protein, by the assay type; conditions: other: conjugate; type C β-lactamase P99
[4] = system: CC1(C)SC2C(NC(=O)C(C(=O)OC3CCC4C5CCC6=CC(=O)CCC6C5CCC34C)c3ccccc3)C(=O)N2C1C(=O)O; experiment: purified protein, by the assay type; conditions: other: conjugate; type C β-lactamase P99
[5] = system: O=C(Cc1cccs1)N[C@@H]1C(=O)N2C(C(=O)O)=C(/C=C/c3ccc([N+](=O)[O-])cc3[N+](=O)[O-])CS[C@H]12; experiment: purified protein, by the assay type; conditions: other: reporter substrate; type C β-lactamase P99

Compound | Ki [2] [µM] | further results
CC(=O)C1CCC2C1CC(OC(C)Cc1ccc(CC(=O)NC3C(=O)N4C3SC(C)(C)C4C(=O)O)cc1)C1C3CCC(=O)C=C3CCC21 (stereo not drawn) [Conjugate 2] |  | Ka [1]: 4.6 ± 3.0 × 10^−6 L.M^−1
Cc1onc(-c2ccc(C(=O)OC3CCC4C5CCc6cc(O)ccc6C5CCC34C)cc2)c1C(=O)NC1C(=O)N2C1SC(C)(C)C2C(=O)O (stereo not drawn) [Conjugate 4] | 0.024 ± 0.026 | 
Cc1onc(-c2ccc(C(=O)OC3CCC4C5CCC6=CC(=O)CCC6C5CCC34C)cc2)c1C(=O)NC1C(=O)N2C1SC(C)(C)C2C(=O)O (stereo not drawn) [Conjugate 5] | 0.018 ± 0.023 | 
Cc1onc(-c2ccc(C(=O)OC3CCC4C5CCC6=CC(=O)CCC6(C)C5CCC34C)cc2)c1C(=O)NC1C(=O)N2C1SC(C)(C)C2C(=O)O (stereo not drawn) [Conjugate 6] | 0.022 ± 0.019 | 
CC(=O)C1CCC2C3CCC4=CC(=O)CCC4(C)C3C(OC(=O)c3ccc(-c4noc(C)c4C(=O)NC4C(=O)N5C4SC(C)(C)C5C(=O)O)cc3)CC12C (stereo not drawn) [Conjugate 7] | 0.019 ± 0.027 | 
Cc1onc(-c2ccc(C(=O)NCCCCC(=O)OC3CCC4C5CCC6=CC(=O)CCC6C5CCC34C)cc2)c1C(=O)NC1C(=O)N2C1SC(C)(C)C2C(=O)O (stereo not drawn) [Conjugate 8] | 0.023 ± 0.018 | 
Cc1onc(-c2ccc(C(=O)NCCCCC(=O)OC3CCC4C5CCC6=CC(=O)CCC6(C)C5CCC34C)cc2)c1C(=O)NC1C(=O)N2C1SC(C)(C)C2C(=O)O (stereo not drawn) [Conjugate 9] | 0.017 ± 0.021 | 
Cc1onc(-c2ccc(OCCOC3CCC4C5CCc6cc(O)ccc6C5CCC34C)c(Cl)c2)c1C(=O)NC1C(=O)N2C1SC(C)(C)C2C(=O)O (stereo not drawn) [Conjugate 10] | 0.014 ± 0.017 | 
Cc1onc(-c2ccc(OCCOC3CCC4C5CCC6=CC(=O)CCC6C5CCC34C)c(Cl)c2)c1C(=O)NC1C(=O)N2C1SC(C)(C)C2C(=O)O (stereo not drawn) [Conjugate 11] | 0.012 ± 0.014 | 
Cc1onc(-c2ccc(OCCOC3CCC4C5CCC6=CC(=O)CCC6(C)C5CCC34C)c(Cl)c2)c1C(=O)NC1C(=O)N2C1SC(C)(C)C2C(=O)O (stereo not drawn) [Conjugate 12] | 0.015 ± 0.016 | 
CC(=O)C1CCC2C3CCC4=CC(=O)CCC4(C)C3C(OCCOc3ccc(-c4noc(C)c4C(=O)NC4C(=O)N5C4SC(C)(C)C5C(=O)O)cc3Cl)CC12C (stereo not drawn) [Conjugate 13] | 0.02 ± 0.021 | 
Cc1onc(-c2ccc(C(=O)NCCCOC3CCC4C5CCc6cc(O)ccc6C5CCC34C)cc2)c1C(=O)NC1C(=O)N2C1SC(C)(C)C2C(=O)O (stereo not drawn) [Conjugate 14] | 0.018 ± 0.023 | 
Cc1onc(-c2ccc(C(=O)NCCCOC3CCC4C5CCC6=CC(=O)CCC6C5CCC34C)cc2)c1C(=O)NC1C(=O)N2C1SC(C)(C)C2C(=O)O (stereo not drawn) [Conjugate 15] | 0.028 ± 0.022 | 
Cc1onc(-c2ccc(C(=O)NCCCOC3CCC4C5CCC6=CC(=O)CCC6(C)C5CCC34C)cc2)c1C(=O)NC1C(=O)N2C1SC(C)(C)C2C(=O)O (stereo not drawn) [Conjugate 16] | 0.026 ± 0.027 | 
CC(=O)C1CCC2C3CCC4=CC(=O)CCC4(C)C3C(OCCCNC(=O)c3ccc(-c4noc(C)c4C(=O)NC4C(=O)N5C4SC(C)(C)C5C(=O)O)cc3)CC12C (stereo not drawn) [Conjugate 17] | 0.021 ± 0.024 | 
Cc1onc(-c2ccc(OC(=O)CCC(=O)OC3CCC4C5CCC6=CC(=O)CCC6(C)C5CCC34C)cc2)c1C(=O)NC1C(=O)N2C1SC(C)(C)C2C(=O)O (stereo not drawn) [Conjugate 18] | 0.023 ± 0.019 | 
Cc1onc(-c2ccc(OC(=O)CCC(=O)OC3CCC4C5CCC6=CC(=O)CCC6C5CCC34C)cc2)c1C(=O)NC1C(=O)N2C1SC(C)(C)C2C(=O)O (stereo not drawn) [Conjugate 19] | 0.021 ± 0.024 | 
Cc1onc(-c2ccc(NC(=O)CCOC3CCC4C5CCC6=CC(=O)CCC6(C)C5CCC34C)cc2)c1C(=O)NC1C(=O)N2C1SC(C)(C)C2C(=O)O (stereo not drawn) [Conjugate 20] | 0.029 ± 0.027 | 
Cc1onc(-c2ccc(NC(=O)CCOC3CCC4C5CCC6=CC(=O)CCC6C5CCC34C)cc2)c1C(=O)NC1C(=O)N2C1SC(C)(C)C2C(=O)O (stereo not drawn) [Conjugate 21] | 0.03 ± 0.033 | 
Cc1onc(-c2ccc(NC(=O)CCOC3CCC4C5CCc6cc(O)ccc6C5CCC34C)cc2)c1C(=O)NC1C(=O)N2C1SC(C)(C)C2C(=O)O (stereo not drawn) [Conjugate 23] | 0.019 ± 0.021 | 
Cc1onc(-c2ccc(OCCC(=O)OC3CCC4C5CCC6=CC(=O)CCC6(C)C5CCC34C)cc2)c1C(=O)NC1C(=O)N2C1SC(C)(C)C2C(=O)O (stereo not drawn) [Conjugate 24] | 0.021 ± 0.026 | 
Cc1onc(-c2ccc(OCCC(=O)OC3CCC4C5CCC6=CC(=O)CCC6C5CCC34C)cc2)c1C(=O)NC1C(=O)N2C1SC(C)(C)C2C(=O)O (stereo not drawn) [Conjugate 25] | 0.028 ± 0.031 | 
CC(=O)C1CCC2C3CCC4=CC(=O)CCC4(C)C3C(OC(=O)CCOc3ccc(-c4noc(C)c4C(=O)NC4C(=O)N5C4SC(C)(C)C5C(=O)O)cc3)CC12C (stereo not drawn) [Conjugate 28] | 0.026 ± 0.026 | 
Cc1onc(-c2ccc(OCCC(=O)OC3CCC4C5CCc6cc(O)ccc6C5CCC34C)cc2)c1C(=O)NC1C(=O)N2C1SC(C)(C)C2C(=O)O (stereo not drawn) [Conjugate 29] | 0.021 ± 0.024 | 
CC1(C)SC2C(NC(=O)Cc3ccc(CC(=O)OC4CCC5C6CCc7cc(O)ccc7C6CCC45C)cc3)C(=O)N2C1C(=O)O (stereo not drawn) [Conjugate 30] |  | Ka [1]: 3.8 ± 2.9 × 10^−6 L.M^−1
CC1(C)SC2C(NC(=O)Cc3ccc(CC(=O)OC4CCC5C6CCC7=CC(=O)CCC7(C)C6CCC45C)cc3)C(=O)N2C1C(=O)O (stereo not drawn) [Conjugate 31] |  | Ka [1]: 4.1 ± 3.2 × 10^−6 L.M^−1
CC1(C)SC2C(NC(=O)Cc3ccc(CC(=O)OC4CCC5C6CCc7cc(O)ccc7C6CCC45C)cc3)C(=O)N2C1C(=O)O (stereo not drawn) [Conjugate 32] |  | Ka [1]: 4.8 ± 3.5 × 10^−6 L.M^−1
type C β-lactamase from Enterobacter cloacae P99 (Enterobacter cloacae) |  | Km [3]: 0.0017 µM; kcat [3]: 0.01 s⁻¹; Km [4]: 0.074 µM; kcat [4]: 0.25 s⁻¹; Km [5]: 25 µM; kcat [5]: 780 s⁻¹
